Measurements published in BindingDB's records for doi:10.1073/pnas.0606956103 (Targegen, 2006).

Tests used:
Test in all cases: Determination of PI3K Activity
Settings in all cases: pH 7.4; 22 °C
[1] = molecular target: Phosphatidylinositol 3-kinase regulatory subunit alpha/4,5-bisphosphate 3-kinase catalytic subunit delta isoform (Homo sapiens, UniProt O00329)
[2] = molecular target: Phosphatidylinositol 3-kinase regulatory subunit alpha/4,5-bisphosphate 3-kinase catalytic subunit alpha isoform (Homo sapiens, UniProt P42336)
[3] = molecular target: Phosphatidylinositol 3-kinase regulatory subunit alpha/4,5-bisphosphate 3-kinase catalytic subunit beta isoform (Homo sapiens, UniProt P42338)
Chain of Phosphatidylinositol 3-kinase regulatory subunit alpha/4,5-bisphosphate 3-kinase catalytic subunit beta isoform (P27986 whole entry, canonical isoform): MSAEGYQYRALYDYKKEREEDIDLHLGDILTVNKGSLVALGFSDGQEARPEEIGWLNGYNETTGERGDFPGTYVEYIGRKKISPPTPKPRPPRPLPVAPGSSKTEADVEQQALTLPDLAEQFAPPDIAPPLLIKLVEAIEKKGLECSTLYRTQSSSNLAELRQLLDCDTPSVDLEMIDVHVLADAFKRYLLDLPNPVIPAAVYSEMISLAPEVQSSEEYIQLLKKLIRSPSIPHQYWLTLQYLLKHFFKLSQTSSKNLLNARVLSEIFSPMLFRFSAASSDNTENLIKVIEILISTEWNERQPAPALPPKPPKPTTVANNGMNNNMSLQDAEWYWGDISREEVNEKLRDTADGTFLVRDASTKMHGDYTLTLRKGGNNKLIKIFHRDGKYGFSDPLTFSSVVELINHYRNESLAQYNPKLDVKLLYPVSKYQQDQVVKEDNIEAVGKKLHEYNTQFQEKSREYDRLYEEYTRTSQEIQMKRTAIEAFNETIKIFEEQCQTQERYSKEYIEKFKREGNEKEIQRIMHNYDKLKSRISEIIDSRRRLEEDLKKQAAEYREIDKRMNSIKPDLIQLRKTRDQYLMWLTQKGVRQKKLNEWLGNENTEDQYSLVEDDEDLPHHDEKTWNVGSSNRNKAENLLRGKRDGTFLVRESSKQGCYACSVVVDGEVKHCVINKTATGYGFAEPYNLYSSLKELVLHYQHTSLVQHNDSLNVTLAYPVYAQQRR
Chain of Phosphatidylinositol 3-kinase regulatory subunit alpha/4,5-bisphosphate 3-kinase catalytic subunit beta isoform (P42338 whole entry, canonical isoform): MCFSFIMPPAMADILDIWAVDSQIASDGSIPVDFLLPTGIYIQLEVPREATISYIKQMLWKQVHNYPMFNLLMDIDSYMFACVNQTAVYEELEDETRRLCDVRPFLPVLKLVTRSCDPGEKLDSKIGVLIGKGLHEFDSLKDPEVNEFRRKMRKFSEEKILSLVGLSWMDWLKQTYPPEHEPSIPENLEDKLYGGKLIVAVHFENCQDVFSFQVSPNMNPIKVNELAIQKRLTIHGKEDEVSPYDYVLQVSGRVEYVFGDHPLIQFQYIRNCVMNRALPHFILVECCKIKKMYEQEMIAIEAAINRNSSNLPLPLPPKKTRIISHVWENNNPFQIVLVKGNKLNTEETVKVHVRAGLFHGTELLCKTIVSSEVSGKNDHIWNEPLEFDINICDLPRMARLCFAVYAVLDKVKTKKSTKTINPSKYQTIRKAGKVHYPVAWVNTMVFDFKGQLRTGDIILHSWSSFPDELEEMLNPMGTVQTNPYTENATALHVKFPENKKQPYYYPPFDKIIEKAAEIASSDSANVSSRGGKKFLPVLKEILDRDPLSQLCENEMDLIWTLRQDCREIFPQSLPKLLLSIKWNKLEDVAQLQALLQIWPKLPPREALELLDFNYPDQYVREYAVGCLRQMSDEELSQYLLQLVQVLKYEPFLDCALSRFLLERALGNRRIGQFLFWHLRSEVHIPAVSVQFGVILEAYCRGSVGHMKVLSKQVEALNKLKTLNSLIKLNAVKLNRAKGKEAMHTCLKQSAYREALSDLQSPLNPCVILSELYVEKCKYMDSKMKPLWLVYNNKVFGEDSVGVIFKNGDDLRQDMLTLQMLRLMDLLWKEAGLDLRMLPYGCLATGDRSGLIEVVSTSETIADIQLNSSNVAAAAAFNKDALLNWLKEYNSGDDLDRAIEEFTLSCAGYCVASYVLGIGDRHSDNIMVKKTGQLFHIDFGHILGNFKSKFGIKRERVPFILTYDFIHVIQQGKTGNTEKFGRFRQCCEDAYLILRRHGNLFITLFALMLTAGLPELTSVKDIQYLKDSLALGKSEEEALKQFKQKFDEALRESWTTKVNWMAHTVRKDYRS

Chain of Phosphatidylinositol 3-kinase regulatory subunit alpha/4,5-bisphosphate 3-kinase catalytic subunit delta isoform (P27986 whole entry, canonical isoform): as the sequence (P27986 whole entry, canonical isoform) above
Chain of Phosphatidylinositol 3-kinase regulatory subunit alpha/4,5-bisphosphate 3-kinase catalytic subunit delta isoform (O00329 whole entry, canonical isoform): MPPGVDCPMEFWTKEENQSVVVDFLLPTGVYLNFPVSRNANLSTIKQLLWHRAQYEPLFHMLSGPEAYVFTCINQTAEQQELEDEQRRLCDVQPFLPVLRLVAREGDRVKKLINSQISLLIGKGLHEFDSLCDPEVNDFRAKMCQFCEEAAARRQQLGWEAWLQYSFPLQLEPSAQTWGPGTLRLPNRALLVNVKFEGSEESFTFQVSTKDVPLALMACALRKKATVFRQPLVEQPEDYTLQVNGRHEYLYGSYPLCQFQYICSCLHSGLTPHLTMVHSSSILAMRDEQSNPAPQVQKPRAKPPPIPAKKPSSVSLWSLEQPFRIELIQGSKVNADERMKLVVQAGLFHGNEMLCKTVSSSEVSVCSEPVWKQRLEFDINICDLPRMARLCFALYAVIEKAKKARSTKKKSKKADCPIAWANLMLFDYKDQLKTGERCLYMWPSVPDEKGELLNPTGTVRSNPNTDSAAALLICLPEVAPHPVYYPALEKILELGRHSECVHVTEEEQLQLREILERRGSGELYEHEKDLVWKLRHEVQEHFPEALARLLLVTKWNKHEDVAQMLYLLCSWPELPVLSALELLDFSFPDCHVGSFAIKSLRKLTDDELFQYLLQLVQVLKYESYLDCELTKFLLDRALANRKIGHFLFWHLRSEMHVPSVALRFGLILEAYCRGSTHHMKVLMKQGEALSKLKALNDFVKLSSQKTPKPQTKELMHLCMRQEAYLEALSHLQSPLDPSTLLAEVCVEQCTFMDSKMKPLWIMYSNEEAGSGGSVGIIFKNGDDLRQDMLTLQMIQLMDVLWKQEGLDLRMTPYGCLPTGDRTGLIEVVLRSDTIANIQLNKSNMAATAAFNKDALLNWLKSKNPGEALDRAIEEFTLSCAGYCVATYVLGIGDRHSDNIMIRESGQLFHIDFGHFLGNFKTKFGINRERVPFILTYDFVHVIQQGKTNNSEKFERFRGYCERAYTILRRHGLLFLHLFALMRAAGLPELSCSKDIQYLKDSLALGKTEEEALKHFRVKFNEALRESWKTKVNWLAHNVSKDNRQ
Chain of Phosphatidylinositol 3-kinase regulatory subunit alpha/4,5-bisphosphate 3-kinase catalytic subunit alpha isoform (P27986 whole entry, canonical isoform): as the sequence (P27986 whole entry, canonical isoform) above
Chain of Phosphatidylinositol 3-kinase regulatory subunit alpha/4,5-bisphosphate 3-kinase catalytic subunit alpha isoform (P42336 whole entry, canonical isoform): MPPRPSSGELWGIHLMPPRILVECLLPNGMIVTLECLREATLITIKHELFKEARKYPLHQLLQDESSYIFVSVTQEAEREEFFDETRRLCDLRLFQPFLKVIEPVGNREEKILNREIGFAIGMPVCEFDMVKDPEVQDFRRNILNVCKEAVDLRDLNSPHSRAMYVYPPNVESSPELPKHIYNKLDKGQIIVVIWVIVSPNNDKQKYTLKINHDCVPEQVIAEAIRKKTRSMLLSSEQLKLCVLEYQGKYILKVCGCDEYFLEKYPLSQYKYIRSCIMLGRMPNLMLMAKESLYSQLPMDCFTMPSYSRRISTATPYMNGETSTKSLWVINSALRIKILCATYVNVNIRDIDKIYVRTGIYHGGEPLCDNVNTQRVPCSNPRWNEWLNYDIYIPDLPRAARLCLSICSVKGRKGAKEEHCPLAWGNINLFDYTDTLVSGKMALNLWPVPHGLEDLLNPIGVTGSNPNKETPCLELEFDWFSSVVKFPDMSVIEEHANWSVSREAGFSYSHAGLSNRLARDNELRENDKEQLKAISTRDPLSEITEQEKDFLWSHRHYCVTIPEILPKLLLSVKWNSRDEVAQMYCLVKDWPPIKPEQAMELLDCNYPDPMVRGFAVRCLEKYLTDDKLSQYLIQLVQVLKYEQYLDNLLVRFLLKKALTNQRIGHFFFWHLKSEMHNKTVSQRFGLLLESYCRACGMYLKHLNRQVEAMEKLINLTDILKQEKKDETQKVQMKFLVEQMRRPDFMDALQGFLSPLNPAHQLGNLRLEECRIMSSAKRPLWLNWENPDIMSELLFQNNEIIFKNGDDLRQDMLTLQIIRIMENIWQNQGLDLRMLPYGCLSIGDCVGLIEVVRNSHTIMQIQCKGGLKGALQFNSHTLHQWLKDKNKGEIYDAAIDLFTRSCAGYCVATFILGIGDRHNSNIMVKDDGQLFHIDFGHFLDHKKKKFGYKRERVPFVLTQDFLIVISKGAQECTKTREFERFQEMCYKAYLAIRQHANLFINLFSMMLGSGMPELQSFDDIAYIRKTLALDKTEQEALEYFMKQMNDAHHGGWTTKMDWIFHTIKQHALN

IC50 [1]	IC50 [2]	IC50 [3]	SMILES
561 nM			O=c1cc(N2CCOCC2)oc2c(-c3ccccc3)cccc12
64 nM	1200 nM	107 nM	Nc1nc(N)c2nc(-c3cccc4[nH]ccc34)cnc2n1 [6-(1H-indol-4-yl)pteridine-2,4-diamine]
